In patent US12421209B2, “Compounds” (Hoffmann-La Roche Inc., priority 2021, dated 2025):

How the values were obtained:
Format in all cases: cell-based
hERG channels = target: T1, hERG channels (Homo sapiens, UniProt Q12809); assay: hERG screening assay (automated patch clamp, CHO crelox hERG cell line); conditions: CHO-hERG cells, whole-cell patch clamp at 35-37° C.
T1 construct: Evotec (cryopreserved) ATCC PTA-6812; host or cells: CHO (Chinese hamster ovary) cells
Source text: The CHO crelox hERG cell line (ATCC reference Nr. PTA-6812, female Chinese hamster cells) was generated and validated at Roche. Ready-to-use frozen instant CHO-hERG cells were cryopreserved at Evotec (Germany) and used directly in the experiments.
The extracellular solution contains (in mM): NaCl 150; KCl 4; CaCl2) 1; MgCl2 1; HEPES 10; pH 7.2-7.4 with NaOH, osmolarity 290-330 mOsm. The internal solution contains (in mM): KCl, 10; KF, 100; NaCl, 10; HEPES, 10; EGTA, 20; pH=7.0-7.4 with KOH, osmolarity 260-300 mOsm.
The effects of a compound on hERG K+-currents parameters will be evaluated at 2 concentrations in at least 4 cells.
The hERG test is performed using automated patch clamp system SynchroPatch® 384 (Nanion Technologies GmbH, Germany). K+ currents are measured with the patch-voltage-clamp technique in the whole-cell configuration at 35-37° C.
Cells were held at a resting voltage of −80 mV and they were stimulated by a voltage pattern shown in FIG. 1 to activate hERG channels and conduct outward IKhERG current, at a stimulation frequency of 0.1 Hz (6 bpm)
The amplitudes of IKhERG were recorded in each concentration of drug and they were compared to the vehicle control values (taken as 100%) to define fractional blocks. The concentration-response data were fitted with the following relationship: […]

NLRP3 [1] = target: T2, NLRP3 (Homo sapiens, UniProt Q96P20); assay: THP-1 cells pyroptosis assay (LPS priming, nigericin, resazurin read-out); set-up: Seed THP-1 cells (25,000 cells/well) containing 1.0 μg/ml LPS; host or cells: THP-1 cells; conditions: 1.0 μg/ml LPS, 5 μM nigericin
Description: THP-1 cells (ATCC #TIB-202) were grown in RPMI containing L-glutamine (Gibco #11835) supplemented with 1 mM sodium pyruvate (Sigma #S8636) and penicillin (100 units/ml)/streptomycin (0.1 mg/ml) (Sigma #P4333) in 10% Fetal Bovine Serum (FBS) (Sigma #F0804). The cells were routinely passaged and grown to confluency (˜10^6 cells/ml). On the day of the experiment, THP-1 cells were harvested and resuspended into RPMI medium (without FBS). The cells were then counted and viability (>90%) checked by Trypan blue (Sigma #T8154). Appropriate dilutions were made to give a concentration of 625,000 cells/ml. To this diluted cell solution was added LPS (Sigma #L4524) to give a lug/ml Final Assay Concentration (FAC). 40 μl of the final preparation was aliquoted into each well of a 96-well plate. The plate thus prepared was used for compound screening.
The following method step-by-step assay was followed for compound screening. • 1. Seed THP-1 cells (25,000 cells/well) containing 1.0 μg/ml LPS in 40 μl of RPMI medium (without FBS) in 96-well, black walled, clear bottom cell culture plates coated with poly-D-lysine (VWR #734-0317) • 2. Add 5 μl compound (8 points half-log dilution, with 10 μM top dose) or vehicle (DMSO 0.1% FAC) to the appropriate wells • 3. Incubate for 3 hours at 37° C., 5% CO2 • 4. Add 5 μl nigericin (Sigma #N7143) (FAC 5 μM) to all wells • 5. Incubate for 1 hr at 37° C., 5% CO2 • 6. At the end of the incubation period, spin plates at 300×g for 3 mins and remove supernatant • 7. Then add 50 μl of resazurin (Sigma #R7017) (FAC 100 μM resazurin in RPMI medium without FBS) and incubate plates for a further 1-2 hours at 37° C. and 5% CO2 • 8. Plates were read in an Envision reader at Ex 560 nm and Em 590 nm • 9. IC50 data is fitted to a non-linear regression equation (log inhibitor vs response-variable slope 4-parameters)

NLRP3 [2] = target: T2, NLRP3; assay: Human whole blood IL-1β release assay (LPS, nigericin, AlphaLisa); set-up: Human whole blood in Li-heparin tubes was obtained from healthy donors; from tissue; host or cells: human whole blood from healthy donors; conditions: 10 μM nigericin
Description: For systemic delivery, the ability to inhibit NLRP3 when the compounds are present within the bloodstream is of great importance. For this reason, the NLRP3 inhibitory activity of a number of compounds in human whole blood was investigated in accordance with the following protocol.
Human whole blood in Li-heparin tubes was obtained from healthy donors from a volunteer donor panel. • 1. Plate out 80 μl of whole blood containing lug/ml of LPS in 96-well, clear bottom cell culture plate (Corning #3585) • 2. Add 10 μl compound (8 points half-log dilution with 10 μM top dose) or vehicle (DMSO 0.1% FAC) to the appropriate wells • 3. Incubate for 3 hours at 37° C., 5% CO2 • 4. Add 10 μl nigericin (Sigma #N7143) (10 μM FAC) to all wells • 5. Incubate for 1 hr at 37° C., 5% CO2 • 6. At the end of the incubation period, spin plates at 300×g for 5 mins to pellet cells and remove 20 μl of supernatant and add to 96-well v-bottom plates for IL-1β analysis (note: these plates containing the supernatants can be stored at −80° C. to be analysed at a later date) • 7. IL-1β was measured according to the manufacturer protocol (Perkin Elmer-AlphaLisa IL-1 Kit AL220F-5000) • 8. IC50 data is fitted to a non-linear regression equation (log inhibitor vs response-variable slope 4-parameters)

T2 sequence (Q96P20 whole entry): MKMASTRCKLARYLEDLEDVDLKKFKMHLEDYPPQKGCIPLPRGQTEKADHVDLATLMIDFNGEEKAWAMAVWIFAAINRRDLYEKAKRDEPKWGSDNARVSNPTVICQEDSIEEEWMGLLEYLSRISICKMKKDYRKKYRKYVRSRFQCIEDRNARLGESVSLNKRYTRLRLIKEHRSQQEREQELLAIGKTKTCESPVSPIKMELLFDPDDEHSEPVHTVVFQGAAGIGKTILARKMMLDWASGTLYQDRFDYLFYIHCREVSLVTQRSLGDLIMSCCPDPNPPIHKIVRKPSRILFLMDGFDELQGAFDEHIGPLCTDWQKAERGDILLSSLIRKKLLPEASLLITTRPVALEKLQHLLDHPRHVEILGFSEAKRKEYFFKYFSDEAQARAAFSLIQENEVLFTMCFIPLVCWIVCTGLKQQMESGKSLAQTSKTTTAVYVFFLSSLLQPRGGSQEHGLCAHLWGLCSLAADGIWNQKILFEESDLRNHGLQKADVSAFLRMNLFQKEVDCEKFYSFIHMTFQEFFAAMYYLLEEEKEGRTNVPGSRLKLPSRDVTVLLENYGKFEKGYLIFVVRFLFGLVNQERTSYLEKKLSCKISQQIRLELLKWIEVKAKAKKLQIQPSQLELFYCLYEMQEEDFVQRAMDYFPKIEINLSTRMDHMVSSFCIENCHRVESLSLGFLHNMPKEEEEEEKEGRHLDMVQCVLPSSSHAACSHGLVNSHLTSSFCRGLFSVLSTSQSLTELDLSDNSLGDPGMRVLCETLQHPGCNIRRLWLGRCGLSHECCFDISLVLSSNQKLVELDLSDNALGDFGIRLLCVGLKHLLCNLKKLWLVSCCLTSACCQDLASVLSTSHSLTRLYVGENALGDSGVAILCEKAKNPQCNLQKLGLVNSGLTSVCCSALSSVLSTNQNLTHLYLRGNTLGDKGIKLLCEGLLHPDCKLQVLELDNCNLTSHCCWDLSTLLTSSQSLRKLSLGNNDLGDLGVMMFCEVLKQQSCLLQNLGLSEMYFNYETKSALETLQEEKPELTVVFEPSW
T1 sequence (Q12809 whole entry): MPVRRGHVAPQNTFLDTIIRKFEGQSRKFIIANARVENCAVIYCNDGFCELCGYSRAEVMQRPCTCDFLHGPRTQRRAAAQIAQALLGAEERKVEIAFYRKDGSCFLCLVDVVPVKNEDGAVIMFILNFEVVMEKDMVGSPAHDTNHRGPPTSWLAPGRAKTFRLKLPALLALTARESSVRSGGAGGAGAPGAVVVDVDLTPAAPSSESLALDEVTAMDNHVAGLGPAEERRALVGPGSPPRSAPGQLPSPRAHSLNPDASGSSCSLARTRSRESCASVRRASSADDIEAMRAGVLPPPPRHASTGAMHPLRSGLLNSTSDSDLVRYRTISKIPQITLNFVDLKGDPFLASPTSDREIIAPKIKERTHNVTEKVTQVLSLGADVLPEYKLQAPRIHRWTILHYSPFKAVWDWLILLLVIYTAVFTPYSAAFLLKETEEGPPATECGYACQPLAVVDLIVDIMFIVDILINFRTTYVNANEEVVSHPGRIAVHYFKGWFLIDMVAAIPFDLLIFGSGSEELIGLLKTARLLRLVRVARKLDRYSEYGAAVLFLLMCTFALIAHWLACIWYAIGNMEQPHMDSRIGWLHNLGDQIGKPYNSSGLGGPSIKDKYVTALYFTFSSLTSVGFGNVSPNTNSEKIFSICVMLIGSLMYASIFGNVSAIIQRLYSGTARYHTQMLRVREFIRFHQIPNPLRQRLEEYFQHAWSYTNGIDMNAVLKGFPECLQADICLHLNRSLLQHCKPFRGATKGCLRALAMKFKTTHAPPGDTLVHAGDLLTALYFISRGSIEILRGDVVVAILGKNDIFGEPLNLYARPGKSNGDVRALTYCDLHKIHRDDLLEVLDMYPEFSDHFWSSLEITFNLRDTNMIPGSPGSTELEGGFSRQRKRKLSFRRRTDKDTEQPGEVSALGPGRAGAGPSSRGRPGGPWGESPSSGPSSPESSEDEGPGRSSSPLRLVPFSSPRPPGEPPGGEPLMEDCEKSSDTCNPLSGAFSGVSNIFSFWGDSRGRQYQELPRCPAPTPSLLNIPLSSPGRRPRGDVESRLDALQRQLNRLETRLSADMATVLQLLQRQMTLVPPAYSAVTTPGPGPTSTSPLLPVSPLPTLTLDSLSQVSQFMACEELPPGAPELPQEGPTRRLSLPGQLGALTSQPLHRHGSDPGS

| SMILES | IC50 (hERG channels) [nM] | IC50 (NLRP3 [1]) [nM] | IC50 (NLRP3 [2]) [nM] |
| --- | --- | --- | --- |
| CCN1CCC[C@@H](Nc2nnc(-c3ccc(C(F)(F)F)cc3O)c(C)n2)C1 [Example 4, 2-[3-[[(3R)-1-Ethyl-3-piperidyl]amino]-5-methyl-1,2,4-triazin-6-yl]-5-(trifluoromethyl) phenol] | > 10000 | 1.7 | 5.4 |
| CCN1CCC[C@@H](Nc2nnc(-c3ccc4c(c3O)CCO4)c(C)n2)C1 [Example 7, 5-[3-[[(3R)-1-Ethyl-3-piperidyl]amino]-5-methyl-1,2,4-triazin-6-yl]-2,3-dihydrobenzofuran-4-ol] | > 20000 | 1.1 | 3.7 |
| CCN1CCC[C@@H](Nc2nnc(-c3c(C)cc(C(F)(F)F)cc3O)c(C)n2)C1 [Example 21, 2-[3-[[(3R)-1-Ethyl-3-piperidyl]amino]-5-methyl-1,2,4-triazin-6-yl]-3-methyl-5-(trifluoromethyl) phenol] |  | 1.6 | 57.6 |
| CCN1CCC[C@@H](Nc2ncc(-c3c(C)cc(C(F)(F)F)cc3O)nn2)C1 [Example 1, 2-[3-[[(3R)-1-Ethyl-3-piperidyl]amino]-1,2,4-triazin-6-yl]-3-methyl-5-(trifluoromethyl) phenol; 2,2,2-trifluoroacetic acid] |  | 9 | 39 |
| CCN1C[C@@H](O)C[C@@H](Nc2nnc(-c3c(C)cc(C(F)(F)F)cc3O)c(C)n2)C1 [Example 24, (3S,5R)-1-Ethyl-5-[[6-[2-hydroxy-6-methyl-4-(trifluoromethyl)phenyl]-5-methyl-1,2,4-triazin-3-yl]amino]piperidin-3-ol] |  | 49.6 | 125 |
| CCN1CCC[C@@H](Nc2nnc(-c3ccc(F)cc3O)c(C)n2)C1 [Example 6, 2-[3-[[(3R)-1-Ethyl-3-piperidyl]amino]-5-methyl-1,2,4-triazin-6-yl]-5-fluoro-phenol] |  | 15.5 | 14.6 |
| Cc1nc(N[C@@H]2CCCN(C)C2)nnc1-c1ccc(F)cc1O [Example 15, 5-Fluoro-2-[5-methyl-3-[[(3R)-1-methyl-3-piperidyl]amino]-1,2,4-triazin-6-yl]phenol] |  | 18.3 | 15.1 |
